# Target: Enoyl-[acyl-carrier-protein] reductase [NADH] (Mycobacterium tuberculosis, UniProt P9WGR1, S94A)
structure (smiles),measurement,value
Oc1cc2ccc1Oc1ccc(cc1)CCc1ccc(c(O)c1)Oc1ccc(cc1)CC2,IC50,4.7 µM

# Source: ChEMBL document CHEMBL5230110, “FabI (enoyl acyl carrier protein reductase) - A potential broad spectrum therapeutic target and its inhibitors” (Eur J Med Chem, 2020)
